Experimental data published in patent publication US9340803B2, “3-hydroxypropionic acid and other organic compounds” (Cargill, Incorporated, priority 2000, dated 2016).

Experiments:
[1] = tested on: CoA transferase (propionyl-CoA transferase or pct) from Megasphaera elsdenii; experiment: CoA transferase activity assay (DTNB/citrate synthase coupled, OD 412 nm) with cell free extract; format: biochemical; settings: 25 μM CoA-ester substrate, 200 mM sodium acetate, pH 7.0; cell free extract of E. coli expressing the CoA transferase
Experimental: The plasmid was transformed into Tuner (DE3) pLacI chemically competent cells (Novagen, Madison, Wis.), and expression from the construct tested. Briefly, a culture was grown overnight to saturation and diluted 1:20 the following morning in fresh LB medium with the appropriate antibiotics. The culture was grown at 37° C. with aeration to an OD600 of about 0.6. The culture was induced with IPTG at a final concentration of 100 μM. The culture was incubated for an additional two hours at 37° C. with aeration. Aliquots were taken pre-induction and 2 hours post-induction for SDS-PAGE analysis. A band of the expected molecular weight (55,653 Daltons predicted from the sequence) was observed after IPTG treatment. This band was not observed in cells containing a plasmid lacking the nucleic acid encoding the transferase.
Cell free extracts were prepared to assess enzymatic activity. Briefly, the cells were harvested by centrifugation and disrupted by sonication. The sonicated cell suspension was centrifuged to remove cell debris, and the supernatant was used in the assays.
Transferase activity was measured in the following assay. The assay mixture used contained 100 mM potassium phosphate buffer (pH 7.0), 200 mM sodium acetate, 1 mM dithiobisnitrobenzoate (DTNB), 500 μM oxaloacetate, 25 μM CoA-ester substrate, and 3 μg/mL citrate synthase. If present, the CoA transferase transfers the CoA from the CoA ester to acetate to form acetyl-CoA. The added citrate synthase condenses oxaloacetate and acetyl-CoA to form citrate and free CoASH. The free CoASH complexes with DTNB, and the formation of this complex can be measured by a change in the optical density at 412 nm. The activity of the CoA transferase was measured using the following substrates: lactyl-CoA, propionyl-CoA, acrylyl-CoA, and 3-hydroxypropionyl-CoA. The units/mg of protein was calculated using the following formula: (ΔE/min*Vf*dilution factor)/(VS*14.2)=units/mL where ΔE/min is the change in absorbance per minute at 412 nm, Vf is the final volume of the reaction, and VS is the volume of sample added. The total protein concentration of the cell free extract was about 1 mg/mL so the units/mL equals units/mg.

[2] = tested on: 3-hydroxypropionyl-CoA dehydratase (OS19); experiment: 3-hydroxypropionyl-CoA dehydratase specificity control reactions, MALDI-TOF MS; format: biochemical, Chloroflexus aurantiacus; settings: 1 mM CoA ester, 80% D2O
Experimental: Cell free extracts were prepared by growing cells as described above. The cells were harvested by centrifugation and disrupted by sonication. The sonicated cell suspension was centrifuged to remove cell debris, and the supernatant was used in the assays. The ability of the 3-hydroxypropionyl-CoA dehydratase to perform the following three reactions was measured using MALDI-TOF MS:
The assay mixture contained 50 mM Tris-HCl (pH 7.5), 1 mM CoA ester, and about 1 μg cell free extract. Reactions were allowed to proceed at room temperature and were stopped by adding 1 volume 10% trifluroacetic acid (TFA). The reaction mixtures were purified prior to MALDI-TOF MS analysis using Sep Pak Vac C18 50 mg columns (Waters, Inc.). The columns were conditioned with 1 mL methanol and then equilibrated with two washes of 1 mL 0.1% TFA. The sample was applied to the column, and the flow through was discarded. The column was washed twice with 1 mL 0.1% TFA. The sample was eluted in 200 μL 40% acetonitrile, 0.1% TFA. The acetonitrile was removed by centrifugation in vacuo. Samples were prepared for MALDI-TOF MS analysis by mixing 1:1 with 110 mM sinapinic acid in 0.1% TFA, 67% acetonitrile. The samples were allowed to air dry.
A series of control reactions were performed to confirm the specificity of the 3-hydroxypropionyl-CoA dehydratase. […]

[3] = OS17 polypeptide activity, disappearance of NAD(P)H at 340 nm; format: biochemical, Chloroflexus aurantiacus; settings: 3-HP 1 mM as substrate; protein extract of BL21-DE3/pET11a-OS17
Experimental: To assay OS17 polypeptide function, a 100 mL culture of BL21-DE3/pET11a-OS17 cells was started using 1 mL of overnight grown culture as an inoculum. The culture was grown to an OD of 0.5-0.6 and was induced with 100 μM IPTG. After two and a half hours of induction, the cells were harvested by spinning at 8000 rpm in the floor centrifuge. The cells were washed with 10 mM Tris-HCl (pH 7.8) and passed twice through a French Press at a gauge pressure of 1000 psi. The cell debris was removed by centrifugation at 15,000 rpm. The activity of the OS17 polypeptide was measured spectrophotometrically, and the products formed during this enzymatic transformation were detected by LC/MS. The assay mix was as follows (J. Bacteriol., 181:1088-1098 (1999)):
The initial rate of reaction was measured by monitoring the disappearance of NAD(P)H at 340 nm. The activity of the OS17 polypeptide was measured using 3-HP as the substrate. The units/mL of total protein was calculated using the formula set forth in Example 1. The activity of the expressed OS17 polypeptide was calculated to be 0.061 U/mL of total protein. The reaction products were purified using a Sep Pak Vac column (Waters). The column was conditioned with 1 mL methanol and washed two times with 0.5 mL 0.1% TFA. […] The reaction products were analyzed by LC/MS.

Row | Molecule | CoA transferase activity, Units/mg [1] [Units/mg] | activity of 3-hydroxypropionyl-CoA dehydratase enzyme on CoA ester [2] | activity of the expressed OS17 polypeptide [3]
1 | CC(C)(COP(=O)(O)OP(=O)(O)OC[C@H]1O[C@@H](n2cnc3c(N)ncnc32)[C@H](O)[C@@H]1OP(=O)(O)O)[C@@H](O)C(=O)NCCC(=O)NCCSC(=O)CCO [3-Hydroxypropionyl-CoA] | 110 | active | 
2 | C=CC(=O)SCCNC(=O)CCNC(=O)[C@H](O)C(C)(C)COP(=O)(O)OP(=O)(O)OC[C@H]1O[C@@H](n2cnc3c(N)ncnc32)[C@H](O)[C@@H]1OP(=O)(O)O [Acrylyl-CoA] | 118 |  | 
3 | CC(O)C(=O)SCCNC(=O)CCNC(=O)[C@H](O)C(C)(C)COP(=O)(O)OP(=O)(O)OC[C@H]1O[C@@H](n2cnc3c(N)ncnc32)[C@H](O)[C@@H]1OP(=O)(O)O (stereo partly shown) [Lactyl-CoA] | 211 | not active | 
4 | CCC(=O)SCCNC(=O)CCNC(=O)[C@H](O)C(C)(C)COP(=O)(O)OP(=O)(O)OC[C@H]1O[C@@H](n2cnc3c(N)ncnc32)[C@H](O)[C@@H]1OP(=O)(O)O [Propionyl-CoA] | 144 |  | 
5 | OS17 polypeptide: C. aurantiacus polypeptide having CoA synthase, dehydratase, and dehydrogenase activity (propionyl-CoA synthetase) |  |  | 0.061 U/mL of total protein
